Assays:
[1] = system: human promyelocytic leukemia (HL60) cells; assay: Flow of cells through constricted microfluidic channels (deformation time); format: cell-based; settings: HL60 cells treated with drug to perturb actin network; narrow constrictions
Excerpt: To dissect the contributions of nuclear physical properties to whole cell deformability, human promyelocytic leukemia (HL60) cells provide a convenient model system. These cells can be readily differentiated into neutrophil-type cells in vitro. During this process of granulopoiesis, the cell nucleus undergoes major changes in morphology as it transitions from an ovoid to an irregular, multi-lobed structure.
In addition to these induced changes in nuclear morphology, cytoskeletal protein expression is also altered. Levels of actin increase during differentiation, and cortical actin is implicated in the resistance of these cells to out-of-plane deformations. To determine the contributions of actin to cellular deformation, cells were treated with a drug (cytochalasin B) to perturb their actin network. […] One determinant of nucleus shape stability is the intermediate filament type protein, lamin A. This protein is a major constituent of the meshwork underlying the nuclear envelope, and its expression levels are directly linked to nuclear mechanical properties.

HL60 cells = assay: High throughput mechanical screening (HTMS): cell passage through porous membrane under applied pressure; format: cell-based, human; settings: for cell deformability: FIG. 27
Excerpt: An initial prototype device (see, e.g., FIGS. 9-16) was machined out of polymethylmethacrylate (McMaster Carr) in the format of a 96-well plate containing: a porous membrane sandwiched between a bottom, multiwell collection plate, and a top loading plate. A pressure chamber seals the device and interfaces with a compressed air tank (see, e.g., FIG. 17).
In the initial prototype device, we use track-etched, polycarbonate membranes with 5 μm pore size (Millipore). To minimize adhesion, surface treatment with 10 mg/mL bovine serum albumin was performed prior to the experiment. To load the device, cells were deposited on top of the porous membrane in each individual well. The optimal loading density of cells was established iteratively with detection: a loading density of ˜10^6 cells/mL was optimal given the estimated lower detection limit of 10^2 cells/mL using a flow cytometer.
Once the device was loaded, the pressure chamber lid was placed on top to create a pressure-tight seal, and tubing was connected to a tank of compressed air with 5% CO2 that was outfitted with a pressure gauge (0-30 psi, 0.2 psi resolution, Airgas). An electro-pneumatic regulator (0-20 psi output, Omega) enabled precise control of the magnitude and duration of applied pressure for sub-second periods of time via control through LabVIEW. Pressures between 5-10 psi were estimated to generate ˜kPa-scale stresses required to deform cells with elastic moduli in the kPa range.
After applying pressure to induce deformation of cells through the pores, the number of passaged cells was counted. We used a flow cytometer to count cells in the individual wells of a 96-well plate using scattered light (forward versus side scatter) as a signal (LSRII flow cytometer, BD Biosciences). An entire 96-well plate was counted within 15 minutes.
(§1) As shown in FIG. 27 the effect of various anti-cancer drugs (e.g., cytochalisin D, paclitaxel, daunorubicin, colchicine) can readily be detected using the HTMS systems described herein. […] Without being bound by a particular theory, it is believed that that the changes in mechanical properties are produced by the action of the drugs on cytoskeletal elements (e.g., actin filaments). Similarly, as shown in FIG. 28 the HTMS measurements made herein can be used to detect dose-response effects of various agents (e.g., anti-cancer drugs) on cells. In this experiment, HL60 cells were treated with 10.0 μM colchicine. Without being bound by a particular theory it is believed that colchicine perturbs microtubules at low concentrations and stabilizes F-actin at high concentrations.

[2] = system: adherent murine mammary carcinoma cells (67NR); assay: HTMS measurement on adherent carcinoma cells; format: cell-based; settings: 67NR cells; FIG. 29
Excerpt: FIG. 29 illustrates the effect of various drugs on adherent murine mammary carcinoma cells (67NR).
as §1

OVCAR5 cells = assay: HTMS measurement of drug treatment on ovarian cancer cells; format: cell-based; settings: OVCAR5-CIS+ cells treated for <1 day; 0.4 psi for 35 s; FIG. 32
Excerpt: FIG. 32 illustrates the use of HTMS measurements to detect the effects of drug treatment on cancer cells. Data: 0.4 psi for 35 s.
In addition, the HTMS systems described herein can be used to monitor the progression of drug treatments. Ovarian cancer cells: SKOV3 and OVCAR5 are cisplatin sensitive, while SKOV3-CISR and OVCAR5-CISR are cisplatin resistant.

Structure (SMILES): C=C1[C@@H](C)[C@H]2[C@H](Cc3ccccc3)NC(=O)[C@]23OC(=O)/C=C/[C@H](O)CCC[C@@H](C)C/C=C/[C@H]3[C@@H]1O [cytochalasin B]
- difference in cellular deformation between treated and non-treated controls [1]: no detectable difference

Structure (SMILES): C=C1[C@@H](C)[C@H]2[C@H](Cc3ccccc3)NC(=O)[C@]23[C@H](OC(C)=O)/C=C/[C@@](C)(O)C(=O)[C@@H](C)C/C=C/[C@H]3[C@@H]1O [cytochalasin D]
- cell deformability (HL60 cells; HL60 cells, 2.0 μM): increase cell deformability

Structure (SMILES): COc1cccc2c1C(=O)c1c(O)c3c(c(O)c1C2=O)C[C@@](O)(C(C)=O)C[C@@H]3O[C@H]1C[C@H](N)[C@H](O)[C@H](C)O1 [dauorubicin]
- cell deformability (HL60 cells; HL60 cells, 1.0 μM): decrease the deformability

Structure (SMILES): COc1cc2c(c(OC)c1OC)-c1ccc(OC)c(=O)cc1[C@@H](NC(C)=O)CC2 [colchicine]
- cell deformability (HL60 cells; HL60 cells, 10.0 μM): decrease the deformability
- cell stiffness (dose response) (HL60 cells; HL60 cells, low drug concentration, FIG. 28): increased cell stiffness
- dose response effects on cell mechanical properties [2]: Dose response effects of colchicine are also observed

Structure (SMILES): CC(=O)O[C@H]1C(=O)[C@@]2(C)[C@H]([C@H](OC(=O)c3ccccc3)[C@]3(O)C[C@H](OC(=O)[C@H](O)[C@@H](NC(=O)c4ccccc4)c4ccccc4)C(C)=C1C3(C)C)[C@]1(OC(C)=O)CO[C@@H]1C[C@@H]2O [paclitaxel]
- cell deformability (HL60 cells; HL60 cells, 1.5 μM): increase cell deformability

Structure (SMILES): CC1=C(/C=C/C(C)=C/C=C/C(C)=C/C(=O)O)C(C)(C)CCC1 [ATRA]
- pressure dependence of cell passage versus HL60 cells (HL60 cells; neutrophil-type (ATRA-treated) cells, FIG. 25): different pressure dependence

Structure (SMILES): N.N.[Cl][Pt][Cl] [cisplatin]
- difference in HTMS measurement compared with OVCAR5 cells (OVCAR5 cells): no apparent difference
